Data reported in publication PMC6435784, “Gut Microbiota-Based Pharmacokinetics and the Antidepressant Mechanism of Paeoniflorin” (Frontiers in Pharmacology, 2019).

What was measured:
carboxylesterase = assay: Effect of BNPP inhibition on the transformation of paeoniflorin in intestinal culture system; assay type: cell-based, rat gut microbiota; details: 24 h, 1 mg/mL paeoniflorin
Description: The colon contents of six rats were pooled, and 5 g of the sample was transferred to a ziplock bag and then mixed thoroughly with anaerobic medium (100 mL). After mixing completely, the cultures were stored at 37°C and preincubated for 1 h. Then, 10 μL of paeoniflorin (100 mg/mL) was added to fresh rat intestinal microbial culture (990 μL) under anaerobic conditions of N2, with a final concentration of 1 mg/mL of paeoniflorin in the culture system ([Hattori et al., 1988]). The inactivated bacteria solution was used as a negative control. Cultures were incubated at 37°C for 0, 2, 6, 12, and 24 h, respectively. After terminated the reaction with 3 volumes of acetonitrile, samples were vortexed for 30 s and then centrifuged at 16,162 g for 5 min. A total of 100 μL of the supernatant were transferred to a centrifuge tube, centrifuged at 16,162 g for 5 min and filtered through a 0.45 μm microporous membrane. Finally, 5 μL of the filtrate solution was collected for analysis.
Consistent with the above steps, the carboxylesterase inhibitor BNPP (0.1, 1, 3, and 10 mM) was added to the culture system at different concentrations with a final concentration of 1 mg/mL paeoniflorin. Then, the cultures were incubated at 37°C for 0, 2, 6, 12, and 24 h. The intestinal culture system without BNPP was used as a control group.

[1] = Pharmacokinetics of paeoniflorin in normal SD rats (plasma, LC-MS/MS); assay type: in vivo, rat; details: normal rats, oral paeoniflorin 20 mg/kg, plasma analyte = labelled substance
Description: Chromatography separation was performed using an XSS T3 column (3.5 μm, 2.1 mm × 100 mm, Waters, Milford, MA, United States) with the column temperature maintained at 40°C at a flow rate of 0.4 mL/min. […] The gradient was as follows: 25% eluent B for 2 min; 25–85% B from 2 to 4 min; 85–25% B from 4 to 5 min and held at 25% from 5 to 7 min. The autosampler temperature was set to 4°C. Mass spectrometry was carried out using multiple reaction monitoring mode (MRM). […] The nebulizing gas flow rate was 2.8 L/min, the drying gas flow rate was 10 L/min, and the heating gas flow rate was 10 L/min. […] Plasma samples were immediately stored at 4°C until analysis. The method validation assays were carried out in terms of specificity, linearity, sensitivity, accuracy, precisions, recovery, matrix effect and stability. […] Statistical analyses were conducted using two-way ANOVA and Student’s t-test with GraphPad Prism Version 5 (GraphPad Software, La Jolla, CA, United States). The data are expressed as the means ± standard deviation. […] DAS 3.0 was used to calculate the plasma pharmacokinetic parameters.

[2] = Pharmacokinetics of paeoniflorin in pseudo-germ-free (PGF) rats; assay type: in vivo; details: SD, rat, in vivo, oral paeoniflorin 20 mg/kg, plasma analyte = labelled substance; for AUC(0-t) / Cmax: po, 20 mg/kg
Description: Chromatography separation was performed using an XSS T3 column (3.5 μm, 2.1 mm × 100 mm, Waters, Milford, MA, United States) with the column temperature maintained at 40°C at a flow rate of 0.4 mL/min. […] The gradient was as follows: 25% eluent B for 2 min; 25–85% B from 2 to 4 min; 85–25% B from 4 to 5 min and held at 25% from 5 to 7 min. The autosampler temperature was set to 4°C. Mass spectrometry was carried out using multiple reaction monitoring mode (MRM). […] The nebulizing gas flow rate was 2.8 L/min, the drying gas flow rate was 10 L/min, and the heating gas flow rate was 10 L/min. […] The remaining fourteen SD rats were orally administered saline equivalently. Two days after administration, pharmacokinetic experiments were performed. […] Plasma samples were immediately stored at 4°C until analysis. Statistical analyses were conducted using two-way ANOVA and Student’s t-test with GraphPad Prism Version 5 (GraphPad Software, La Jolla, CA, United States). The data are expressed as the means ± standard deviation. […] DAS 3.0 was used to calculate the plasma pharmacokinetic parameters.

[3] = Excretion of paeoniflorin in rats (urine, feces, bile); assay type: in vivo, rat; details: normal rats, oral paeoniflorin 20 mg/kg, excreted form = labelled substance, n = 6
Description: Then, urine samples and feces samples were collected at 0, 6, 12, 24, 48, 72, and 96 h.

[4] = Brain distribution of paeoniflorin and benzoic acid in rats; assay type: in vivo, rat; details: at 2 h after oral administration of paeoniflorin 20 mg/kg
[5] = Excretion of paeoniflorin in rats (urine, feces, bile); assay type: in vivo, rat; details: normal rats, paeoniflorin 20 mg/kg, excreted form = labelled substance, n = 6
depressed rats = assay: Chronic unpredictable stress depression model, sucrose preference test; assay type: in vivo, rat; details: 10 mg/kg, after 2 weeks of drug treatment, compared with model group, n = 8
Description: Forty rats were randomly divided into the following groups (n = 8): the normal control group, the model control group, the fluoxetine group (10 mg/kg), the paeoniflorin low-dose group (10 mg/kg), and the paeoniflorin high-dose group (20 mg/kg). Except for the blank control group, the groups were randomly exposed to two stressors, including behavioral constraints, ice water swimming, electric shock, cold stimulation, clip tail, wet bedding, light/dark reversed, shaking, foods and water deprivation, continuously for 8 weeks to establish a chronic unpredictable stress model. The sucrose preference test was performed at 0 and 14 days after administration.

[6] = PGF rats (antibiotic pretreated)

O=[N+]([O-])c1ccc(OP(=O)(O)Oc2ccc([N+](=O)[O-])cc2)cc1 [BNPP, bis-p-nitrophenyl phosphate]
inhibition rate of the conversion of paeoniflorin to benzoic acid (carboxylesterase; BNPP 0.1 mM): 8.2%
inhibition rate of the conversion of paeoniflorin to benzoic acid (carboxylesterase; BNPP 1 mM): 46.8%
inhibition rate of the conversion of paeoniflorin to benzoic acid (carboxylesterase; BNPP 3 mM): 63.7%
inhibition rate of the conversion of paeoniflorin to benzoic acid (carboxylesterase; BNPP 10 mM): 74.9%

O=C(O)c1ccccc1 [Benzoic acid, benzoic acid]
AUC(0-t) ([1]; SD, rat, in vivo, po, 20 mg/kg, Figures 2C, 3B, 3C, read-out: AUC(0-t) (unit inferred)): 151 ng·h/mL
Cmax ([1]; SD, rat, in vivo, po, 20 mg/kg, Figures 2C, 3B, 3C, read-out: Cmax (unit inferred)): 55.6 ng/mL
AUC(0-t) ([1]; SD, rat, in vivo, po, 20 mg/kg, n = 6, read-out: AUC (0-t)): 151 ng·h/mL
Cmax ([1]; SD, rat, in vivo, po, 20 mg/kg, n = 6, read-out: Cmax): 55.6 ± 12.1 ng/mL
Cmax ([1]; SD, rat, in vivo, po, 20 mg/kg, read-out: Cmax): 55.6 ng/mL
AUC(0-inf) ([1]; SD, rat, in vivo, n = 6): 162 ± 40.1 ng·h/mL
Tmax ([1]; SD, rat, in vivo, n = 6): 47.5 ± 11.3 min
AUC(0-t) ([1]; n = 6): 151.24 ± 29.59 ng·h/mL
AUC(0-t) ([2]; PGF rats (antibiotic pretreated), read-out: AUC (0-t)): 94.8 ± 19.8 ng·h/mL
Cmax ([2]; PGF rats (antibiotic pretreated), read-out: Cmax): 27.6 ± 2.63 ng/mL
AUC(0-t) ([2]; PGF rats, Figures 3B, 3C, read-out: AUC(0-t) (unit inferred)): 68.5 ng·h/mL
Cmax ([2]; PGF rats, Figures 3B, 3C, read-out: Cmax (unit inferred)): 25.4 ng/mL
AUC(0-inf) [2, 6]: 97.2 ± 20.2 ng·h/mL
Tmax [2, 6]: 35.8 ± 14.3 min
96-h cumulative excretion in feces [3]: 0.15%
96-h cumulative excretion in urine [3]: 42.13%
detection in SD rat brains [4]: considerable number
cumulative excretion rate in bile for 60 h [5]: No benzoic acid was detected

CNCCC(Oc1ccc(C(F)(F)F)cc1)c1ccccc1 (centres unmarked) [fluoxetine, reference compound]
sucrose preference value (depressed rats): significantly higher than that of the model control group
